# Reference: the kinase profiling compilation of Christmann-Franck et al. (2016)
# Tests used:
# Test in all cases: radiometric filter-binding kinase assay
# [1] = system: AKT1 (human), P31749 [S473D]
# BRSK2 (human) = BRSK2 (human) (UniProt Q8IWQ3)
# BTK (human) = BTK (human) (UniProt Q06187)
# CaMK1 (human) = CaMK1 (human) (UniProt Q14012)
# DYRK2 (human) = DYRK2 (human) (UniProt Q92630)
# DYRK3 (human) = DYRK3 (human) (UniProt O43781)
# EPHA2 (human) = EPHA2 (human) (UniProt P29317)
# FLT1 (human) = FLT1 (human) (UniProt P17948)
# HIPK2 (human) = HIPK2 (human) (UniProt Q9H2X6)
# INSR (human) = INSR (human) (UniProt P06213)
# MAP2K1 (human) = MAP2K1 (human) (UniProt Q02750)
# MAPK11 (human) = MAPK11 (human) (UniProt Q15759)
# MAPK8 (human) = MAPK8 (human) (UniProt P45983)
# MAPK9 (human) = MAPK9 (human) (UniProt P45984)
# MAPKAPK5 (human) = MAPKAPK5 (human) (UniProt Q8IW41)
# Chain of MAPKAPK5 (human) (Q8IW41 whole entry, looked up): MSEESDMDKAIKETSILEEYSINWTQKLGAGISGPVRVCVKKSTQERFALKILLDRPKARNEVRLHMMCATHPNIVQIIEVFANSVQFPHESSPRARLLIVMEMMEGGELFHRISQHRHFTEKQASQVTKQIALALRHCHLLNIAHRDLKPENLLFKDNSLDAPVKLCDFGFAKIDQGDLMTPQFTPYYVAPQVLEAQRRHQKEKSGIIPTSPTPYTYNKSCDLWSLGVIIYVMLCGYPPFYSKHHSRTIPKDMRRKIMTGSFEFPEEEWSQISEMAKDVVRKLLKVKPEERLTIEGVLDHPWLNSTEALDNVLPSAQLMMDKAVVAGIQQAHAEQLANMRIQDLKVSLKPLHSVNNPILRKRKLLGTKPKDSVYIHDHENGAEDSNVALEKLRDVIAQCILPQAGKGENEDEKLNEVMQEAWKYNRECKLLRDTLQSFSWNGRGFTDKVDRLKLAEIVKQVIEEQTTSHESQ
# MARK3 (human) = MARK3 (human) (UniProt P27448)
# Chain of MARK3 (human) (P27448 whole entry, looked up): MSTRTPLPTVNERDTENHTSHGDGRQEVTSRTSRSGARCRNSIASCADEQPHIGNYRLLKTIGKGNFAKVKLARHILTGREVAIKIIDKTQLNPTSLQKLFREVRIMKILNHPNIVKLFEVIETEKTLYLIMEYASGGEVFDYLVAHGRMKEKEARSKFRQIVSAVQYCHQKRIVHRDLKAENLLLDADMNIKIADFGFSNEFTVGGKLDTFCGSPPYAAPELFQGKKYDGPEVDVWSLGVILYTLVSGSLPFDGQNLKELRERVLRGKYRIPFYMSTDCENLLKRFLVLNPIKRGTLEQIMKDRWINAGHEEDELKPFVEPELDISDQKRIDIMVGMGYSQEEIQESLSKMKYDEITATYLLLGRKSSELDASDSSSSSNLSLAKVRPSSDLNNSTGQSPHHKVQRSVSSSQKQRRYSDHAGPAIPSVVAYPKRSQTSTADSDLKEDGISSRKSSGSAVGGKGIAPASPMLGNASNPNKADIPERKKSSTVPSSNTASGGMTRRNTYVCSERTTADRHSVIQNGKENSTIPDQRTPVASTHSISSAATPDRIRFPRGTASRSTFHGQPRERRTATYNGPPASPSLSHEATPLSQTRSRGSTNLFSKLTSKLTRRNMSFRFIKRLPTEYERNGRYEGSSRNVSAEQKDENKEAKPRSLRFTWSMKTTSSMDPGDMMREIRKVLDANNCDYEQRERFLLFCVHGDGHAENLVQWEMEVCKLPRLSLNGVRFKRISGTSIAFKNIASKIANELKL
# PIM1 (human) = PIM1 (human) (UniProt P11309)
# Chain of PIM1 (human) (P11309 whole entry, looked up): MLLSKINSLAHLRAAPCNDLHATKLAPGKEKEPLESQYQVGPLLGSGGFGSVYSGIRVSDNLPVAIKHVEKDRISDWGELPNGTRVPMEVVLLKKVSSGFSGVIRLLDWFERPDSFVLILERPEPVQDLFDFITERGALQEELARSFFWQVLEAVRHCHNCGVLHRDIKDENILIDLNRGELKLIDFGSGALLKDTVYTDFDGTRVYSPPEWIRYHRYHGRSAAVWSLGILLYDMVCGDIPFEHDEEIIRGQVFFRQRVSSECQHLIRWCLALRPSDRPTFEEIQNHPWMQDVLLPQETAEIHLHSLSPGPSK
# PRKCA (human) = PRKCA (human) (UniProt P17252)
# [2] = system: RPS6KB1 (human), P23443 [T412E]
# Chain of RPS6KB1 (human), P23443 [T412E] (P23443 whole entry T412E, looked up): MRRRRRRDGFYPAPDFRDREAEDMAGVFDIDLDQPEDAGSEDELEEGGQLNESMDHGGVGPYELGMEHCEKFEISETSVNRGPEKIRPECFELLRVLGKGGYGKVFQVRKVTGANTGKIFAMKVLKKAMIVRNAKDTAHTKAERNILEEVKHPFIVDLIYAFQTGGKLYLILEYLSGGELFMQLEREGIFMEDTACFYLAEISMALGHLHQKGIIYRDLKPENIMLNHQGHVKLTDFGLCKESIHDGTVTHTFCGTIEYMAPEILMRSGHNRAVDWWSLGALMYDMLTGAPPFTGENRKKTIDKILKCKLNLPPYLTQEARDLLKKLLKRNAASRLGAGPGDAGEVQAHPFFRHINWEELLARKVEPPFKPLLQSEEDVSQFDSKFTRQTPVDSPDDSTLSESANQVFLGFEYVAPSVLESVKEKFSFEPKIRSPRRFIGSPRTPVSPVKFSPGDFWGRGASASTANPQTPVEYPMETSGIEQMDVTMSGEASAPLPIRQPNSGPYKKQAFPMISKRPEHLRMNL
# STK3 (human) = STK3 (human) (UniProt Q13188)
# SYK (human) = SYK (human) (UniProt P43405)
# TBK1 (human) = TBK1 (human) (UniProt Q9UHD2)
# YES1 (human) = YES1 (human) (UniProt P07947)
# Chain of CaMK1 (human) (Q14012 whole entry, looked up): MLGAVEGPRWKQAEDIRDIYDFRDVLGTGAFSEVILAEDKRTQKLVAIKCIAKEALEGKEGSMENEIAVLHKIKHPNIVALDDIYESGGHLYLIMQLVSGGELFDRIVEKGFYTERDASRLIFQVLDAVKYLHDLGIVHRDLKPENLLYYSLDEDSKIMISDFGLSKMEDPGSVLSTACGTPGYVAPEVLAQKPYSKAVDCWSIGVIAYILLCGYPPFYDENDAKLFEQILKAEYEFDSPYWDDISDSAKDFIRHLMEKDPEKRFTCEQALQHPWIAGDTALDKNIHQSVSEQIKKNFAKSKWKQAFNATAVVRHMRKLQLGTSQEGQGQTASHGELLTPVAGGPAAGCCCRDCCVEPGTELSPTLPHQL
# Chain of BRSK2 (human) (Q8IWQ3 whole entry, looked up): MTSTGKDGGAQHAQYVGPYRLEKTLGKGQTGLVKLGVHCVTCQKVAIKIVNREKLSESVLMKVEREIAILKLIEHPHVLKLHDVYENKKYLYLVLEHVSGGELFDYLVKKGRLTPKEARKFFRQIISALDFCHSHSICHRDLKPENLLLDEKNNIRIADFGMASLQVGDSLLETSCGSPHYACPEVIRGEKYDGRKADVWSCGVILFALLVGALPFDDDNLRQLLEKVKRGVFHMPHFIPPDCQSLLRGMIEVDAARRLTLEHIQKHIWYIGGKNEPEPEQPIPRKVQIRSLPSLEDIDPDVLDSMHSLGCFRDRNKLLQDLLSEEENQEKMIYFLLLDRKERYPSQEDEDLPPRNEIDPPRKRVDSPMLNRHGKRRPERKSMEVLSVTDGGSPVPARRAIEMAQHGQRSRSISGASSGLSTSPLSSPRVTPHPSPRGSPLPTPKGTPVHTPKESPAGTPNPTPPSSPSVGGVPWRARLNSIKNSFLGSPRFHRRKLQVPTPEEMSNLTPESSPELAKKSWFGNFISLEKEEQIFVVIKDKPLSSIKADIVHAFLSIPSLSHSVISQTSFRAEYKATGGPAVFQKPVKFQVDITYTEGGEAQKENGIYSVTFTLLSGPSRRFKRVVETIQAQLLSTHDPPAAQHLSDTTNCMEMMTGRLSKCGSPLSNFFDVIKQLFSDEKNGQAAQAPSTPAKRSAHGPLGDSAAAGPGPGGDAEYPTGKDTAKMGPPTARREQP
# Chain of BTK (human) (Q06187 whole entry, looked up): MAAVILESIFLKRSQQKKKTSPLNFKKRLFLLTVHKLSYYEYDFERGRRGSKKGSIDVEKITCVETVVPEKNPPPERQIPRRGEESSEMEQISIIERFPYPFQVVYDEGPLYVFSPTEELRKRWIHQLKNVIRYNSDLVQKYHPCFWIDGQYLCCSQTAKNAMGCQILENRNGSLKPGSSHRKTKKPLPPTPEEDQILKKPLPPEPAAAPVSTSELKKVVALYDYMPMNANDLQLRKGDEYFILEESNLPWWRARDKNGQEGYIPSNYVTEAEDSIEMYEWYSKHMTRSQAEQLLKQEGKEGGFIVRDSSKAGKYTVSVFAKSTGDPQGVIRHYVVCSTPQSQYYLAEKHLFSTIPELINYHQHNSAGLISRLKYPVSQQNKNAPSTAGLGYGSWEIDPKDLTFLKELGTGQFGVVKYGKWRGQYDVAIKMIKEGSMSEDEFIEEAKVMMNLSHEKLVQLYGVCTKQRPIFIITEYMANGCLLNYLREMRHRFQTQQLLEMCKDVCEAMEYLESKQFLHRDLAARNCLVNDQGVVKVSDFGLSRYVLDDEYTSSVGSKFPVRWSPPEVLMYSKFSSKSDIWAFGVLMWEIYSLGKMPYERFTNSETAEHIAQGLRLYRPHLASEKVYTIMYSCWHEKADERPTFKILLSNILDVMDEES
# Chain of AKT1 (human), P31749 [S473D] (P31749 whole entry S473D, looked up): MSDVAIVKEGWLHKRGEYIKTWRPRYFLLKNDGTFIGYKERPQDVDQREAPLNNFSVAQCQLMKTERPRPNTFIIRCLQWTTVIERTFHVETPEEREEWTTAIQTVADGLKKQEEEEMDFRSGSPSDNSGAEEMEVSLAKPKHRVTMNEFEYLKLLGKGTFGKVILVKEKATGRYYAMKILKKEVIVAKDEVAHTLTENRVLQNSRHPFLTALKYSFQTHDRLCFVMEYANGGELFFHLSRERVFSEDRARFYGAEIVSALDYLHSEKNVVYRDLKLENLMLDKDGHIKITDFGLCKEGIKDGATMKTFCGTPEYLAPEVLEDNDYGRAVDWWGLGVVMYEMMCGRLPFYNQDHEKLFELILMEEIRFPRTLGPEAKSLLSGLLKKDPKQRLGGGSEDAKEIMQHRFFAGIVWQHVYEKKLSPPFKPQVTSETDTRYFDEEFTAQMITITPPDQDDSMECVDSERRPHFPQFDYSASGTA
compound,measurement,setting,value
CCc1cncnc1N1CCN(Cc2nc3cc(C(F)(F)F)ccc3[nH]2)CC1,residual activity,[1]; compound 0.1 µM,87%
same,residual activity,[1]; compound 1.0 µM,69%
same,residual activity,[1]; compound 10.0 µM,52%
same,residual activity,BRSK2 (human); compound 0.1 µM,88%
same,residual activity,BRSK2 (human); compound 1.0 µM,84%
same,residual activity,BRSK2 (human); compound 10.0 µM,83%
same,residual activity,BTK (human); compound 0.1 µM,83%
same,residual activity,BTK (human); compound 1.0 µM,87%
same,residual activity,BTK (human); compound 10.0 µM,92%
same,residual activity,CaMK1 (human); compound 0.1 µM,106%
same,residual activity,CaMK1 (human); compound 10.0 µM,78%
same,residual activity,DYRK2 (human); compound 0.1 µM,97%
same,residual activity,DYRK2 (human); compound 1.0 µM,104%
same,residual activity,DYRK2 (human); compound 10.0 µM,101%
same,residual activity,DYRK3 (human); compound 0.1 µM,106%
same,residual activity,DYRK3 (human); compound 1.0 µM,92%
same,residual activity,DYRK3 (human); compound 10.0 µM,83%
same,residual activity,EPHA2 (human); compound 0.1 µM,95%
same,residual activity,EPHA2 (human); compound 1.0 µM,86%
same,residual activity,EPHA2 (human); compound 10.0 µM,89%
same,residual activity,FLT1 (human); compound 0.1 µM,97%
same,residual activity,FLT1 (human); compound 1.0 µM,83%
same,residual activity,FLT1 (human); compound 10.0 µM,37%
same,residual activity,HIPK2 (human); compound 0.1 µM,108%
same,residual activity,HIPK2 (human); compound 1.0 µM,86%
same,residual activity,HIPK2 (human); compound 10.0 µM,88%
same,residual activity,INSR (human); compound 0.1 µM,108%
same,residual activity,INSR (human); compound 1.0 µM,95%
same,residual activity,INSR (human); compound 10.0 µM,96%
same,residual activity,MAP2K1 (human); compound 0.1 µM,117%
same,residual activity,MAP2K1 (human); compound 1.0 µM,104%
same,residual activity,MAP2K1 (human); compound 10.0 µM,96%
same,residual activity,MAPK11 (human); compound 0.1 µM,88%
same,residual activity,MAPK11 (human); compound 1.0 µM,89%
same,residual activity,MAPK11 (human); compound 10.0 µM,97%
same,residual activity,MAPK8 (human); compound 1.0 µM,107%
same,residual activity,MAPK8 (human); compound 10.0 µM,95%
same,residual activity,MAPK9 (human); compound 0.1 µM,92%
same,residual activity,MAPK9 (human); compound 1.0 µM,93%
same,residual activity,MAPK9 (human); compound 10.0 µM,98%
same,residual activity,MAPKAPK5 (human); compound 0.1 µM,114%
same,residual activity,MAPKAPK5 (human); compound 1.0 µM,97%
same,residual activity,MAPKAPK5 (human); compound 10.0 µM,87%
same,residual activity,MARK3 (human); compound 0.1 µM,94%
same,residual activity,MARK3 (human); compound 1.0 µM,83%
same,residual activity,MARK3 (human); compound 10.0 µM,82%
same,residual activity,PIM1 (human); compound 0.1 µM,88%
same,residual activity,PIM1 (human); compound 1.0 µM,90%
same,residual activity,PIM1 (human); compound 10.0 µM,78%
same,residual activity,PRKCA (human); compound 0.1 µM,119%
same,residual activity,PRKCA (human); compound 1.0 µM,106%
same,residual activity,PRKCA (human); compound 10.0 µM,62%
same,residual activity,[2]; compound 0.1 µM,39%
same,residual activity,[2]; compound 1.0 µM,16%
same,residual activity,[2]; compound 10.0 µM,6%
same,residual activity,STK3 (human); compound 0.1 µM,95%
same,residual activity,STK3 (human); compound 1.0 µM,85%
same,residual activity,STK3 (human); compound 10.0 µM,77%
same,residual activity,SYK (human); compound 0.1 µM,121%
same,residual activity,SYK (human); compound 1.0 µM,100%
same,residual activity,SYK (human); compound 10.0 µM,91%
same,residual activity,TBK1 (human); compound 0.1 µM,108%
same,residual activity,TBK1 (human); compound 1.0 µM,105%
same,residual activity,TBK1 (human); compound 10.0 µM,97%
same,residual activity,YES1 (human); compound 0.1 µM,98%
same,residual activity,YES1 (human); compound 1.0 µM,84%
same,residual activity,YES1 (human); compound 10.0 µM,76%
O=C1NC(=S)N[C@@H]1Cc1c[nH]c2ccccc12,residual activity,[1]; compound 1.0 µM,87%
same,residual activity,[1]; compound 10.0 µM,90%
same,residual activity,BRSK2 (human); compound 1.0 µM,79%
same,residual activity,BRSK2 (human); compound 10.0 µM,94%
same,residual activity,BTK (human); compound 1.0 µM,84%
same,residual activity,BTK (human); compound 10.0 µM,99%
same,residual activity,CaMK1 (human); compound 1.0 µM,89%
same,residual activity,CaMK1 (human); compound 10.0 µM,104%
same,residual activity,DYRK2 (human); compound 1.0 µM,82%
same,residual activity,DYRK2 (human); compound 10.0 µM,98%
same,residual activity,DYRK3 (human); compound 1.0 µM,78%
same,residual activity,DYRK3 (human); compound 10.0 µM,96%
same,residual activity,EPHA2 (human); compound 1.0 µM,94%
same,residual activity,EPHA2 (human); compound 10.0 µM,86%
same,residual activity,FLT1 (human); compound 1.0 µM,89%
same,residual activity,HIPK2 (human); compound 10.0 µM,92%
same,residual activity,INSR (human); compound 1.0 µM,96%
same,residual activity,INSR (human); compound 10.0 µM,103%
same,residual activity,MAP2K1 (human); compound 1.0 µM,-2%
same,residual activity,MAP2K1 (human); compound 10.0 µM,2%
same,residual activity,MAPK11 (human); compound 1.0 µM,94%
same,residual activity,MAPK11 (human); compound 10.0 µM,95%
same,residual activity,MAPK8 (human); compound 1.0 µM,83%
same,residual activity,MAPK8 (human); compound 10.0 µM,107%
same,residual activity,MAPK9 (human); compound 1.0 µM,91%
same,residual activity,MAPK9 (human); compound 10.0 µM,95%
same,residual activity,MAPKAPK5 (human); compound 1.0 µM,89%
same,residual activity,MAPKAPK5 (human); compound 10.0 µM,100%
same,residual activity,MARK3 (human); compound 1.0 µM,92%
same,residual activity,MARK3 (human); compound 10.0 µM,85%
same,residual activity,PIM1 (human); compound 1.0 µM,89%
same,residual activity,PIM1 (human); compound 10.0 µM,93%
same,residual activity,PRKCA (human); compound 1.0 µM,97%
same,residual activity,PRKCA (human); compound 10.0 µM,104%
same,residual activity,[2]; compound 1.0 µM,88%
same,residual activity,[2]; compound 10.0 µM,100%
same,residual activity,STK3 (human); compound 1.0 µM,99%
same,residual activity,STK3 (human); compound 10.0 µM,102%
same,residual activity,SYK (human); compound 1.0 µM,92%
same,residual activity,SYK (human); compound 10.0 µM,116%
same,residual activity,TBK1 (human); compound 1.0 µM,106%
same,residual activity,TBK1 (human); compound 10.0 µM,94%
same,residual activity,YES1 (human); compound 1.0 µM,85%
same,residual activity,YES1 (human); compound 10.0 µM,96%
C[C@H]1CCCC(=O)CCC/C=C/c2cc(O)cc(O)c2C(=O)O1,residual activity,[1]; compound 10.0 µM,95%
same,residual activity,BRSK2 (human); compound 1.0 µM,54%
same,residual activity,BRSK2 (human); compound 10.0 µM,17%
same,residual activity,BTK (human); compound 1.0 µM,107%
same,residual activity,BTK (human); compound 10.0 µM,69%
same,residual activity,CaMK1 (human); compound 1.0 µM,101%
same,residual activity,CaMK1 (human); compound 10.0 µM,75%
same,residual activity,DYRK2 (human); compound 1.0 µM,90%
same,residual activity,DYRK2 (human); compound 10.0 µM,62%
same,residual activity,DYRK3 (human); compound 1.0 µM,100%
same,residual activity,DYRK3 (human); compound 10.0 µM,62%
same,residual activity,EPHA2 (human); compound 1.0 µM,69%
same,residual activity,EPHA2 (human); compound 10.0 µM,26%
same,residual activity,FLT1 (human); compound 1.0 µM,95%
same,residual activity,FLT1 (human); compound 10.0 µM,69%
same,residual activity,HIPK2 (human); compound 1.0 µM,100%
same,residual activity,HIPK2 (human); compound 10.0 µM,63%
same,residual activity,INSR (human); compound 1.0 µM,107%
same,residual activity,INSR (human); compound 10.0 µM,102%
same,residual activity,MAP2K1 (human); compound 1.0 µM,66%
same,residual activity,MAP2K1 (human); compound 10.0 µM,55%
same,residual activity,MAPK11 (human); compound 1.0 µM,108%
same,residual activity,MAPK11 (human); compound 10.0 µM,101%
same,residual activity,MAPK8 (human); compound 1.0 µM,88%
same,residual activity,MAPK8 (human); compound 10.0 µM,80%
same,residual activity,MAPK9 (human); compound 1.0 µM,46%
same,residual activity,MAPK9 (human); compound 10.0 µM,65%
same,residual activity,MAPKAPK5 (human); compound 1.0 µM,97%
same,residual activity,MAPKAPK5 (human); compound 10.0 µM,79%
same,residual activity,MARK3 (human); compound 1.0 µM,102%
same,residual activity,MARK3 (human); compound 10.0 µM,99%
same,residual activity,PIM1 (human); compound 1.0 µM,51%
same,residual activity,PIM1 (human); compound 10.0 µM,11%
same,residual activity,PRKCA (human); compound 1.0 µM,54%
same,residual activity,PRKCA (human); compound 10.0 µM,69%
same,residual activity,[2]; compound 1.0 µM,106%
same,residual activity,[2]; compound 10.0 µM,61%
same,residual activity,STK3 (human); compound 1.0 µM,119%
same,residual activity,STK3 (human); compound 10.0 µM,113%
same,residual activity,SYK (human); compound 1.0 µM,93%
same,residual activity,SYK (human); compound 10.0 µM,84%
same,residual activity,TBK1 (human); compound 1.0 µM,82%
same,residual activity,TBK1 (human); compound 10.0 µM,80%
same,residual activity,YES1 (human); compound 1.0 µM,79%
same,residual activity,YES1 (human); compound 10.0 µM,35%
